Source: DBAASP
≈ marks a conversion by molar mass, not a printed value. Each block holds one molecule with its values, some of them ahead of it.

Legend:
Assay in all cases: ≥ marks a high value that may be exact or a test limit, other limits are often not marked, values filed in µg/mL are converted to µM
[1] = system: Escherichia coli JW0368 ΔsbmA
[2] = system: Escherichia coli JJ2489
[3] = system: Escherichia coli BW25113
[4] = system: Escherichia coli J2210
[5] = system: Escherichia coli JW0013
[6] = system: Escherichia coli JW2778 ΔygdD
[7] = system: Escherichia coli MC1041
[8] = system: Salmonella typhimurium SL1344
[9] = system: Salmonella enterica subsp. enterica serovar Enteritidis MH91989
[10] = system: Enterococcus faecium ATCC BAA-2316
[11] = system: Staphylococcus aureus ATCC BAA-41
[12] = system: Pseudomonas aeruginosa ATCC BAA-2114
[13] = system: Staphylococcus aureus ATCC 29213
[14] = system: Staphylococcus aureus ATCC 33591
[15] = system: Staphylococcus epidermidis ATCC 12228
[16] = system: Escherichia coli ATCC 35218
[17] = system: Escherichia coli ATCC 25922
[18] = system: Staphylococcus aureus ATCC 43300
[19] = system: Bacillus cereus ATCC 14579
[20] = system: Salmonella enterica ATCC H9812
[21] = system: Enterococcus faecium 4W-9
[22] = system: Pseudomonas aeruginosa PAO1
[23] = system: Staphylococcus aureus MR
[24] = system: Enterococcus faecium 5F-10
[25] = system: Bacillus amyloliquefaciens ATCC 23842
[26] = system: Enterococcus faecalis A4
[27] = system: Bacillus licheniformis ATCC 14580
[28] = system: Enterococcus faecalis 1F-1
[29] = system: Proteus mirabilis ATCC 35659
[30] = system: Bacillus subtilis ATCC 6051
[31] = system: Staphylococcus aureus 215
[32] = system: Escherichia coli C25
[33] = system: Staphylococcus aureus ATCC 25923
[34] = system: Streptococcus sanguinis ATCC 10556
[35] = system: Staphylococcus aureus ATCC 8325-4
[36] = system: Streptococcus mutans ATCC UA159
[37] = system: Candida albicans ATCC 5314
[38] = system: Staphylococcus aureus
[39] = system: Staphylococcus aureus ATCC 6538
[40] = system: Escherichia coli BL21
[41] = system: Bacillus subtilis 168
[42] = system: Escherichia coli ESBL
[43] = system: Staphylococcus aureus JE2
[44] = system: Staphylococcus aureus M838-17
[45] = system: Klebsiella pneumoniae ATCC 13883
[46] = system: Enterococcus faecium V286-17
[47] = system: Pseudomonas aeruginosa E411-17
[48] = system: Klebsiella pneumoniae E406-17
[49] = system: Escherichia coli E416-7

MIC [19]: ≥ 154 µM | MIC [20]: ≥ 154 µM | MIC [21]: ≥ 154 µM | MIC [13]: 38.6 µM (≈ 33.6 µg/mL) | MIC [22]: 154 µM (≈ 134 µg/mL) | MIC [23]: ≥ 38.6 µM | MIC [17]: 77.1 µM (≈ 67.2 µg/mL) | MIC [24]: ≥ 154 µM | MIC [25]: ≥ 154 µM | MIC [26]: ≥ 154 µM | MIC [27]: ≥ 154 µM | MIC [28]: ≥ 154 µM | MIC [29]: ≥ 154 µM | MIC [30]: ≥ 154 µM | MIC [31]: ≥ 38.6 µM
SMILES: CC(=O)N[C@@H](CCC(=O)O)C(=O)N[C@@H](CC(C)C)C(=O)N[C@@H](CC(C)C)C(=O)N[C@@H](CO)C(=O)N[C@@H](CCCN=C(N)N)C(=O)N[C@H](C(=O)N[C@@H](CC(N)=O)C(=O)O)C(C)C [ELLSRVN]

MIC [32]: 8.5 µM (≈ 13.1 µg/mL) | MIC [33]: 17 µM (≈ 26.2 µg/mL)
SMILES: CC[C@H](C)[C@H](NC(=O)CNC(=O)[C@H](CCCN=C(N)N)NC(=O)[C@H](Cc1ccc(O)cc1)NC(=O)[C@@H](NC(=O)[C@H](CCCN=C(N)N)NC(=O)[C@H](Cc1ccccc1)NC(=O)[C@H](Cc1c[nH]c2ccccc12)NC(=O)[C@@H](N)CCCCN)C(C)C)C(=O)N[C@@H](Cc1ccc(O)cc1)C(=O)N[C@@H](CCCN=C(N)N)C(N)=O [KWFRVYRGIYR]

MIC [40]: 2.5 µM (≈ 3.95 µg/mL) | MIC [41]: 5 µM (≈ 7.89 µg/mL) | MIC [42]: 12 µM (≈ 18.9 µg/mL) | MIC [38]: 7.5 µM (≈ 11.8 µg/mL)
SMILES: CC[C@H](C)[C@H](N)C(=O)N[C@H](C(=O)N[C@@H](CCCCN)C(=O)N[C@@H](CCCCN)C(=O)N[C@H](C(=O)N[C@H](C(=O)N[C@@H](CCCCN)C(=O)N[C@@H](CCCCN)C(=O)N[C@H](C(=O)N[C@H](C(=O)N[C@@H](CCCCN)C(=O)N[C@@H](CCCCN)C(=O)N[C@H](C(N)=O)[C@@H](C)CC)[C@@H](C)CC)[C@@H](C)CC)[C@@H](C)CC)[C@@H](C)CC)[C@@H](C)CC [IIKKIIKKIIKKI]

Further lines, the molecule ahead of its results:

SMILES: CC[C@H](C)[C@H](NC(=O)[C@H](CCCN=C(N)N)NC(=O)[C@@H](N)CCCN=C(N)N)C(=O)N[C@@H](CCCCN)C(=O)N[C@@H](CCCCN)C(=O)N[C@@H](CCCN=C(N)N)C(=O)N1CCC[C@H]1C(=O)N1CCC[C@H]1C(=O)N[C@@H](CCCN=C(N)N)C(=O)N[C@@H](CC(C)C)C(=O)N1CCC[C@H]1C(=O)N[C@@H](CCCN=C(N)N)C(=O)N1CCC[C@H]1C(=O)N[C@@H](CCCN=C(N)N)C(=O)N1CCC[C@H]1C(=O)N[C@@H](CCCCN)C(=O)O [RRIKKRPPRLPRPRPK]
MIC [1]: 0.06 µM (≈ 0.123 µg/mL) | MIC [2]: 0.12 µM (≈ 0.246 µg/mL) | MIC [3]: 0.078 µM (≈ 0.16 µg/mL) | MIC [4]: 0.167 µM (≈ 0.343 µg/mL) | MIC [5]: 0.06 µM (≈ 0.123 µg/mL) | MIC [6]: 0.12 µM (≈ 0.246 µg/mL) | MIC [7]: 0.06 µM (≈ 0.123 µg/mL) | MIC [8]: 0.12 µM (≈ 0.246 µg/mL) | MIC [9]: 0.167 µM (≈ 0.343 µg/mL)

SMILES: CC[C@H](C)[C@H](NC(=O)[C@H](CCCN=C(N)N)NC(=O)[C@H](CCC(N)=O)NC(=O)[C@@H](NC(=O)[C@@H](NC(=O)[C@H](CCCN=C(N)N)NC(=O)[C@H](CCCCN)NC(=O)[C@H](Cc1ccccc1)NC(=O)[C@@H](NC(=O)[C@@H]1CCCN1C(=O)[C@H](CO)NC(=O)[C@H](CC(C)C)NC(=O)[C@H](CCCCN)NC(=O)[C@H](CCCCN)NC(=O)[C@H](Cc1ccccc1)NC(=O)[C@H](CC(C)C)NC(=O)[C@H](CCCCN)NC(=O)[C@H](CCCCN)NC(=O)[C@H](Cc1ccccc1)NC(=O)[C@@H](N)CCCCN)C(C)C)[C@@H](C)CC)C(C)C)C(=O)N[C@@H](CCCCN)C(=O)N[C@@H](CC(=O)O)C(=O)N[C@@H](Cc1ccccc1)C(=O)N[C@@H](CC(C)C)C(=O)N[C@@H](CCCN=C(N)N)C(=O)O [KFKKLFKKLSPVFKRIVQRIKDFLR]
MIC [10]: 20 µM (≈ 63.3 µg/mL) | MIC [11]: 20 µM (≈ 63.3 µg/mL) | MIC [12]: 10 µM (≈ 31.6 µg/mL) | MIC [13]: 20 µM (≈ 63.3 µg/mL) | MIC [14]: 20 µM (≈ 63.3 µg/mL) | MIC [15]: 20 µM (≈ 63.3 µg/mL) | MIC [16]: 20 µM (≈ 63.3 µg/mL) | MIC [17]: 20 µM (≈ 63.3 µg/mL) | MIC [18]: 20 µM (≈ 63.3 µg/mL)

SMILES: CC[C@H](C)[C@H](NC(=O)[C@H](CCCCN)NC(=O)[C@H](CCCN=C(N)N)NC(=O)[C@H](CCC(=O)O)NC(=O)[C@H](Cc1ccc(O)cc1)NC(=O)[C@@H](N)CO)C(=O)N[C@@H](CC(N)=O)C(=O)N[C@@H](CCCN=C(N)N)C(=O)N[C@@H](Cc1cnc[nH]1)C(=O)N[C@@H](Cc1ccccc1)C(=O)N[C@@H](CCCCN)C(=O)N[C@H](C(=O)N[C@@H](CC(C)C)C(=O)N[C@@H](CCCCN)C(=O)N[C@@H](CCCCN)C(=O)N[C@@H](CC(N)=O)C(=O)N[C@@H](CC(C)C)C(=O)N[C@@H](CCCCN)C(=O)N[C@@H](CCCCN)C(=O)N[C@@H](CCCCN)C(N)=O)[C@@H](C)O [SYERKINRHFKTLKKNLKKK]
MIC [34]: 25 µM (≈ 64 µg/mL) | MIC [35]: 6.25 µM (≈ 16 µg/mL) | MIC [13]: 12.5 µM (≈ 32 µg/mL) | MIC [23]: 12.5 µM (≈ 32 µg/mL) | MIC [36]: 25 µM (≈ 64 µg/mL) | MIC [37]: 25 µM (≈ 64 µg/mL) | MIC [33]: 12.5 µM (≈ 32 µg/mL) | MIC [38]: 6.25 µM (≈ 16 µg/mL) | MIC [39]: 12.5 µM (≈ 32 µg/mL)

SMILES: CC(C)C[C@H](NC(=O)[C@H](CC(C)C)NC(=O)[C@H](CCCCN)NC(=O)[C@H](CC(C)C)NC(=O)CNC(=O)[C@H](CC(C)C)NC(=O)[C@H](CO)NC(=O)[C@H](CC(C)C)NC(=O)[C@H](CC(C)C)NC(=O)[C@H](CC(C)C)NC(=O)[C@H](CO)NC(=O)[C@H](CC(C)C)NC(=O)CN)C(N)=O [GLSLLLSLGLKLL]
MIC [43]: 1.56 µM (≈ 2.09 µg/mL) | MIC [44]: 3.1 µM (≈ 4.15 µg/mL) | MIC [45]: 25 µM (≈ 33.5 µg/mL) | MIC [46]: 4.4 µM (≈ 5.89 µg/mL) | MIC [47]: ≥ 50 µM | MIC [22]: > 25 µM | MIC [48]: ≥ 50 µM | MIC [17]: > 25 µM | MIC [49]: ≥ 50 µM
